In experiment [1] the test system is human kidney organoids. Nature of the experiment: P21, gammaH2AX and LTL immunostaining in cisplatin-injured human kidney organoids. The class given is cell-based. As to conditions: for gammaH2AX induction: cisplatin; for gammaH2AX induction / P21 expression: concurrent SK-124 (FIG. 9); for LTL-positive proximal tubule cells / P21 / gammaH2AX: dose response, five cisplatin cycles (FIG. 11); for P21 expression: indicated number of cisplatin cycles. How it is done:
FIG. 9. SK-124 treatment protects from cisplatin-induced P21 induction in human kidney organoids. Organoids were treated with the indicated number of cisplatin cycles in the presence of DMSO vehicle (top) or SK-124 (bottom). Organoids were then processed for P21 immunofluorescent microscopy.
FIG. 11. SK-124 protects human kidney organoids from cisplatin injury in a dose-dependent manner. Organoids were treated with five cisplatin cycles in the presence of the indicated doses of SK-124. Subsequently, organoids were immunostained to reveal cellular composition and injury markers P21 (top panels) and gammaH2AX (bottom panels). […] Proximal tubule cells are labeled with LTL staining and are reduced by cisplatin treatment and restored by SK-124 co-treatment.
For cisplatin induced injury, day 49 organoids were treated with 5 μM cisplatin in basal media after full media change. After 24 hours, full media exchanges were performed. This 24-hour treatment was performed twice a week, on day 52-53, day 56-57, day 59-60, and day 63-64 as well, for a total of five cisplatin treatments. Samples were obtained for RT-qPCR and immunostaining immediately following each 24-hour treatment with cisplatin, and from corresponding controls.
Following the treatment, the organoids were collected and immediately fixed in 4% PFA in PBS for 1 hour at room temperature, submerged in 30% sucrose overnight at 4° C., then embedded in O.C.T. Compound (4585. Fisher HealthCare). Subsequently, […] frozen sections were prepared via cryo-sectioning by a cryostat. After 1 hr blocking at room temperature, the sections were treated overnight at 4° C. with primary antibodies in antibody dilution buffer (ADB) with biotinylated LTL (1:200, B-1325, Vector), rat anti-CDH1 (1:500, ab11512, Abcam), goat anti-PODXL (1:500, AF1658, R&D Systems), as well as the antibody of interest, either mouse anti-p21 (1:200, NBP2-43697, Novus Biologicals), or rabbit anti-γH2AX (1:100, 2577, Cell Signaling) antibodies. For the optimum labeling of LTL by biotin/streptavidin interaction, the Streptavidin/Biotin Blocking Kit (SP-2002, Vector Laboratories) was applied according to the manufacturer's instructions. After washing, the samples were stained for 1 hour at RT with the nuclear dye-SYTOX Blue (1:500. S 11348, Invitrogen) and the corresponding secondary antibodies in ADB such as streptavidin-AF750 (1:500, S21384, Invitrogen), donkey anti-rat IgG-AF594 (1:500, A21209, Invitrogen), donkey anti-goat IgG-AF555 (1:500, A21432, Invitrogen), and donkey anti-rabbit IgG-AF488 (1:500, A21206, Invitrogen) for γH2AX or donkey anti-mouse IgG-AF488 (1:500, A21202, Invitrogen) for p21 antibodies as well as mouse anti-Meisl/⅔ (1:200, sc-101850, SantaCruz) conjugated antibody, and slides were mounted with Vectashield antifade mounting medium (H1000, Vector Laboratories).
Finally, the images were captured by the STELLARIS 8 confocal microscope (Leica Microsystems) using 25× water immersion objective lens. The mean diameters of the organoids were measured on the Leica Application Suite X (LAS X) software platform.

For experiment [2], the system named is human kidney organoids. As to the kind of experiment: RNA-seq of cisplatin-injured human kidney organoids. The class given is cell-based. The following applies: for injury markers (Col8al, Fibronectin-1, Serpinel) / markers of intact proximal integrity (Lrp2 and Hnf4a): RNA-seq, cisplatin vs vehicle, or SK-124 vs DMSO within cisplatin-treated organoids. On the procedure: FIGS. 13A-13E. Transcriptomic effects of SK-124 in cisplatin-induced human kidney organoid model. RNA-seq was performed on kidney organoid RNA samples (n=4/group) from FIG. 8. Volcano plot show gene regulated (>2-fold change, p(adj)<0.05) by cisplatin (versus vehicle, A) or within cisplatin-treated organoids by SK-124 (versus DMSO control, B). In Volcano plot, representative fibrosis/injury markers (Col8a1, Fni, Serpinel) and proximal tubule integrity (Lrp2 and Hnf4a) are shown. Scatterplot (C) and heatmap (D) showing integration of individual RNA-seq comparisons.
Isolated RNA samples from the mouse adenine diet study and human kidney organoid experiment were submitted to Novogene and bulk-RNA sequencing on NovaSeq X Plus Ilumina Novoseq Platform. Sequencing reads were mapped to the mouse reference genome (mm10/GRCm38) or human reference genome (GRCh38/hg38) using Salmon and differential gene expression analysis was performed using DESeq2.

Entries after “also recorded” stand apart in the source; their conditions may differ.

In the case of `CCc1nnc(-c2c(OC)cc(-c3cnc4cc(-c5cnn(C)c5)ccn34)cc2OC)o1` [SK-124, 2-[2,6-Dimethoxy-4-[7-(1-methylpyrazol-4-yl)imidazo[1,2-a]pyridin-3-yl]phenyl]-5-ethyl-1,3,4-oxadiazole], in the experiment on human kidney organoids [1], the gammaH2AX induction entry was “markedly reduced”, the “LTL-positive proximal tubule cells” value was “restored; also recorded: blocked by SK-124 treatment in a dose-dependent manner”, the P21 entry is “reduced by SK-124 co-treatment in a dose-dependent manner; also recorded: blocked by SK-124 treatment in a dose-dependent manner” and the gammaH2AX result is on record as “reduced by SK-124 co-treatment in a dose-dependent manner”. Moreover, in the experiment with human kidney organoids [1], the P21 expression entry is on record as “markedly reduced”. In addition, in the experiment with human kidney organoids [2], the “injury markers (Col8al, Fibronectin-1, Serpinel)” value is “reduced”; the “markers of intact proximal integrity (Lrp2 and Hnf4a)” value was “restored”. In addition, the “genes regulated in cisplatin (versus control)” value in the experiment with human kidney organoids [2] (scatterplot and heatmap, SK-124 vs DMSO in the setting of injury) was “conversely regulated”.
As for `N.N.[Cl][Pt][Cl]` [cisplatin, reference compound], in the experiment on human kidney organoids [1], the gammaH2AX induction entry was “robust P21 (top) and gammaH2AX (bottom) induction”; the “LTL-positive proximal tubule cells” value was “reduced; also recorded: loss of LTL-positive proximal tubule cells”; the P21 entry was “robust cisplatin-induced P21 induction”; the gammaH2AX result is given as “induced”. The P21 expression result in the experiment with human kidney organoids [1] was “induces P21 expression; also recorded: robust P21 (top) and gammaH2AX (bottom) induction”. Further, in the experiment with human kidney organoids [2], the “injury markers (Col8al, Fibronectin-1, Serpinel)” value is listed as “induced”; the “markers of intact proximal integrity (Lrp2 and Hnf4a)” value is given as “reduced”.
